{"source": "patent US20100003191A1", "about": "“AURONE DERIVATIVE-CONTAINING COMPOSITION FOR DIAGNOSIS” (NAGASAKI UNIVERSITY, priority 2006, published 2010)", "assay": "In vivo radioactivity biodistribution experiment in normal mice (Example 1, Table 13)", "set-up": "species or system ddY mice", "procedure": "^125I-labeled compounds were diluted with 10% ethanol-containing physiological saline. […] After their blood was collected, organs were removed, and the weights and radioactivities thereof were measured.\nWhen any of the aurone derivatives was used, sufficient radioactivity to perform imaging of intracerebral amyloid migrated to the brain from the early stage of injection (1.7-4.6% ID/g). […] It was also shown that, in any of the aurone derivatives, in vivo radioactivity behavior is discharged mainly from the liver to the bile duct and the intestinal tract."}
{"smiles": "O=C1/C(=C/c2ccc(O)cc2)Oc2ccc([125I])cc21", "note": "[[^125I]20]", "values": [{"measurement": "Biodistribution of radioactivity, Blood", "setting": "2 min after injection", "value": "3.14 (0.73) % injected dose per gram"}, {"measurement": "Biodistribution of radioactivity, Blood", "setting": "10 min after injection", "value": "2.77 (0.28) % injected dose per gram"}, {"measurement": "Biodistribution of radioactivity, Blood", "setting": "30 min after injection", "value": "1.75 (0.38) % injected dose per gram"}, {"measurement": "Biodistribution of radioactivity, Blood", "setting": "60 min after injection", "value": "0.87 (0.28) % injected dose per gram"}, {"measurement": "Biodistribution of radioactivity, Brain", "setting": "2 min after injection", "value": "3.07 (0.39) % injected dose per gram"}, {"measurement": "Biodistribution of radioactivity, Brain", "setting": "10 min after injection", "value": "1.48 (0.19) % injected dose per gram"}, {"measurement": "Biodistribution of radioactivity, Brain", "setting": "30 min after injection", "value": "0.37 (0.07) % injected dose per gram"}, {"measurement": "Biodistribution of radioactivity, Brain", "setting": "60 min after injection", "value": "0.14 (0.12) % injected dose per gram"}, {"measurement": "Biodistribution of radioactivity, Heart", "setting": "2 min after injection", "value": "6.23 (0.63) % injected dose per gram"}, {"measurement": "Biodistribution of radioactivity, Heart", "setting": "10 min after injection", "value": "2.57 (0.41) % injected dose per gram"}, {"measurement": "Biodistribution of radioactivity, Heart", "setting": "30 min after injection", "value": "0.98 (0.14) % injected dose per gram"}, {"measurement": "Biodistribution of radioactivity, Heart", "setting": "60 min after injection", "value": "0.42 (0.09) % injected dose per gram"}, {"measurement": "Biodistribution of radioactivity, Intestine", "setting": "2 min after injection", "value": "2.11 (0.75) % injected dose per gram"}, {"measurement": "Biodistribution of radioactivity, Intestine", "setting": "10 min after injection", "value": "6.12 (0.83) % injected dose per gram"}, {"measurement": "Biodistribution of radioactivity, Intestine", "setting": "30 min after injection", "value": "12.67 (2.13) % injected dose per gram"}, {"measurement": "Biodistribution of radioactivity, Intestine", "setting": "60 min after injection", "value": "14.87 (5.42) % injected dose per gram"}, {"measurement": "Biodistribution of radioactivity, Kidney", "setting": "2 min after injection", "value": "11.08 (2.96) % injected dose per gram"}, {"measurement": "Biodistribution of radioactivity, Kidney", "setting": "10 min after injection", "value": "11.22 (2.26) % injected dose per gram"}, {"measurement": "Biodistribution of radioactivity, Kidney", "setting": "30 min after injection", "value": "5.82 (1.11) % injected dose per gram"}, {"measurement": "Biodistribution of radioactivity, Kidney", "setting": "60 min after injection", "value": "2.43 (1.04) % injected dose per gram"}, {"measurement": "Biodistribution of radioactivity, Liver", "setting": "2 min after injection", "value": "6.05 (1.49) % injected dose per gram"}, {"measurement": "Biodistribution of radioactivity, Liver", "setting": "10 min after injection", "value": "6.63 (1.08) % injected dose per gram"}, {"measurement": "Biodistribution of radioactivity, Liver", "setting": "30 min after injection", "value": "4.23 (0.63) % injected dose per gram"}, {"measurement": "Biodistribution of radioactivity, Liver", "setting": "60 min after injection", "value": "4.45 (3.14) % injected dose per gram"}, {"measurement": "Biodistribution of radioactivity, Lung", "setting": "2 min after injection", "value": "6.69 (0.86) % injected dose per gram"}, {"measurement": "Biodistribution of radioactivity, Lung", "setting": "10 min after injection", "value": "3.14 (0.23) % injected dose per gram"}, {"measurement": "Biodistribution of radioactivity, Lung", "setting": "30 min after injection", "value": "1.62 (0.22) % injected dose per gram"}, {"measurement": "Biodistribution of radioactivity, Lung", "setting": "60 min after injection", "value": "0.80 (0.19) % injected dose per gram"}, {"measurement": "Biodistribution of radioactivity, Pancreas", "setting": "2 min after injection", "value": "5.28 (0.99) % injected dose per gram"}, {"measurement": "Biodistribution of radioactivity, Pancreas", "setting": "10 min after injection", "value": "2.65 (0.64) % injected dose per gram"}, {"measurement": "Biodistribution of radioactivity, Pancreas", "setting": "30 min after injection", "value": "0.92 (0.19) % injected dose per gram"}, {"measurement": "Biodistribution of radioactivity, Pancreas", "setting": "60 min after injection", "value": "0.36 (0.09) % injected dose per gram"}, {"measurement": "Biodistribution of radioactivity, Spleen", "setting": "2 min after injection", "value": "2.18 (0.48) % injected dose per gram"}, {"measurement": "Biodistribution of radioactivity, Spleen", "setting": "10 min after injection", "value": "1.36 (0.15) % injected dose per gram"}, {"measurement": "Biodistribution of radioactivity, Spleen", "setting": "30 min after injection", "value": "0.69 (0.14) % injected dose per gram"}, {"measurement": "Biodistribution of radioactivity, Spleen", "setting": "60 min after injection", "value": "0.42 (0.02) % injected dose per gram"}, {"measurement": "Biodistribution of radioactivity, Stomach", "setting": "2 min after injection", "value": "1.30 (0.43) % injected dose per organ"}, {"measurement": "Biodistribution of radioactivity, Stomach", "setting": "10 min after injection", "value": "2.53 (0.97) % injected dose per organ"}, {"measurement": "Biodistribution of radioactivity, Stomach", "setting": "30 min after injection", "value": "2.82 (1.88) % injected dose per organ"}, {"measurement": "Biodistribution of radioactivity, Stomach", "setting": "60 min after injection", "value": "2.26 (0.88) % injected dose per organ"}]}
